From ChEMBL document CHEMBL1201861, “Genomics of Drug Sensitity in Cancer screening data, Wellcome Trust Sanger Institute”

Assays:
COR-L279 = experiment: SANGER: Inhibition of human COR-L279 cell growth in a cell viability assay.; assay type: functional, cell-based
EB-3 = experiment: cells; assay type: functional, cell-based; details: Homo sapiens
Description: SANGER: Inhibition of human EB-3 cell growth in a cell viability assay.

EVSA-T = experiment: cells; assay type: functional, cell-based, Homo sapiens; details: Homo sapiens, EVSA-T
Description: SANGER: Inhibition of human EVSA-T cell growth in a cell viability assay.

G-361 = experiment: cells; assay type: functional, cell-based, Homo sapiens; details: Homo sapiens, G-361
GDM-1 = experiment: cells; assay type: functional, cell-based; details: Homo sapiens
Description: SANGER: Inhibition of human GDM-1 cell growth in a cell viability assay.

HCC1599 = experiment: cells; assay type: functional, cell-based; details: Homo sapiens
Description: SANGER: Inhibition of human HCC1599 cell growth in a cell viability assay.

HT55 = experiment: cells; assay type: functional, cell-based, Homo sapiens; details: Homo sapiens, HT55
Description: SANGER: Inhibition of human HT55 cell growth in a cell viability assay.

IM-9 = experiment: SANGER: Inhibition of human IM-9 cell growth in a cell viability assay.; assay type: functional, cell-based
IST-SL2 = experiment: cells; assay type: functional, cell-based; details: Homo sapiens
Description: SANGER: Inhibition of human IST-SL2 cell growth in a cell viability assay.

JIYOYE = experiment: cells; assay type: functional, cell-based; details: Homo sapiens
Description: SANGER: Inhibition of human JiyoyeP-2003 cell growth in a cell viability assay.

K052 = experiment: cells; assay type: functional, cell-based; details: Homo sapiens
Description: SANGER: Inhibition of human K052 cell growth in a cell viability assay.

KARPAS-422 = experiment: cells; assay type: functional, cell-based; details: Homo sapiens
Description: SANGER: Inhibition of human KARPAS-422 cell growth in a cell viability assay.

KMS-12-PE = experiment: cells; assay type: functional, cell-based; details: Homo sapiens
Description: SANGER: Inhibition of human KMS-12-PE cell growth in a cell viability assay.

L-540 = experiment: cells; assay type: functional, cell-based; details: Homo sapiens
Description: SANGER: Inhibition of human L-540 cell growth in a cell viability assay.

LOUCY = experiment: cells; assay type: functional, cell-based; details: Homo sapiens
Description: SANGER: Inhibition of human LOUCY cell growth in a cell viability assay.

LU-165 = experiment: cells; assay type: functional, cell-based; details: Homo sapiens
Description: SANGER: Inhibition of human LU-165 cell growth in a cell viability assay.

MC-CAR = experiment: cells; assay type: functional, cell-based; details: Homo sapiens
Description: SANGER: Inhibition of human MC-CAR cell growth in a cell viability assay.

MDA-MB-134-VI = experiment: cells; assay type: functional, cell-based; details: Homo sapiens
Description: SANGER: Inhibition of human MDA-MB-134-VI cell growth in a cell viability assay.

MEL-JUSO = experiment: cells; assay type: functional, cell-based, Homo sapiens; details: Homo sapiens, MEL-JUSO
Description: SANGER: Inhibition of human MEL-JUSO cell growth in a cell viability assay.

MRK-nu-1 = experiment: cells; assay type: functional, cell-based; details: Homo sapiens
Description: SANGER: Inhibition of human MRK-nu-1 cell growth in a cell viability assay.

NCI-H1436 = experiment: cells; assay type: functional, cell-based; details: Homo sapiens
Description: SANGER: Inhibition of human NCI-H1436 cell growth in a cell viability assay.

NCI-H1522 = experiment: cells; assay type: functional, cell-based; details: Homo sapiens
Description: SANGER: Inhibition of human NCI-H1522 cell growth in a cell viability assay.

NCI-H1694 = experiment: cells; assay type: functional, cell-based; details: Homo sapiens
Description: SANGER: Inhibition of human NCI-H1694 cell growth in a cell viability assay.

NCI-H1703 = experiment: cells; assay type: functional, cell-based, Homo sapiens; details: Homo sapiens, NCI-H1703
Description: SANGER: Inhibition of human NCI-H1703 cell growth in a cell viability assay.

NCI-H1882 = experiment: cells; assay type: functional, cell-based; details: Homo sapiens
Description: SANGER: Inhibition of human NCI-H1882 cell growth in a cell viability assay.

NCI-H2141 = experiment: cells; assay type: functional, cell-based; details: Homo sapiens
Description: SANGER: Inhibition of human NCI-H2141 cell growth in a cell viability assay.

NCI-H460 = experiment: cells; assay type: functional, cell-based, Homo sapiens; details: Homo sapiens, NCI-H460
Description: SANGER: Inhibition of human NCI-H460 cell growth in a cell viability assay.

NCI-H524 = experiment: cells; assay type: functional, cell-based; details: Homo sapiens
Description: SANGER: Inhibition of human NCI-H524 cell growth in a cell viability assay.

NCI-H64 = experiment: cells; assay type: functional, cell-based; details: Homo sapiens
Description: SANGER: Inhibition of human NCI-H64 cell growth in a cell viability assay.

NCI-H889 = experiment: cells; assay type: functional, cell-based; details: Homo sapiens
Description: SANGER: Inhibition of human NCI-H889 cell growth in a cell viability assay.

SNU-16 = experiment: cells; assay type: functional, cell-based; details: Homo sapiens
Description: SANGER: Inhibition of human NCI-SNU-16 cell growth in a cell viability assay.

Raji = experiment: cells; assay type: functional, cell-based; details: Homo sapiens
Description: SANGER: Inhibition of human Raji cell growth in a cell viability assay.

SCLC-21H = experiment: cells; assay type: functional, cell-based; details: Homo sapiens
Description: SANGER: Inhibition of human SCLC-21H cell growth in a cell viability assay.

SK-MM-2 = experiment: cells; assay type: functional, cell-based; details: Homo sapiens
Description: SANGER: Inhibition of human SK-MM-2 cell growth in a cell viability assay.

SNU-C1 = experiment: cells; assay type: functional, cell-based; details: Homo sapiens
Description: SANGER: Inhibition of human SNU-C1 cell growth in a cell viability assay.

ST486 = experiment: SANGER: Inhibition of human ST486 cell growth in a cell viability assay.; assay type: functional, cell-based
SU-DHL-1 = experiment: SANGER: Inhibition of human SU-DHL-1 cell growth in a cell viability assay.; assay type: functional, cell-based
SUP-T1 = experiment: cells; assay type: functional, cell-based; details: Homo sapiens
Description: SANGER: Inhibition of human SUP-T1 cell growth in a cell viability assay.

23132-87 = experiment: cells; assay type: functional, cell-based, Homo sapiens; details: Homo sapiens
Description: SANGER: Inhibition of human 23132-87 cell growth in a cell viability assay.

BC-3 = experiment: cells; assay type: functional, cell-based; details: Homo sapiens
Description: SANGER: Inhibition of human BC-3 cell growth in a cell viability assay.

BL-41 = experiment: cells; assay type: functional, cell-based; details: Homo sapiens
Description: SANGER: Inhibition of human BL-41 cell growth in a cell viability assay.

BL-70 = experiment: SANGER: Inhibition of human BL-70 cell growth in a cell viability assay.; assay type: functional, cell-based
CA46 = experiment: cells; assay type: functional, cell-based; details: Homo sapiens
Description: SANGER: Inhibition of human CA46 cell growth in a cell viability assay.

CAL-148 = experiment: cells; assay type: functional, cell-based; details: Homo sapiens
Description: SANGER: Inhibition of human CAL-148 cell growth in a cell viability assay.

TE-15 = experiment: cells; assay type: functional, cell-based; details: Homo sapiens
Description: SANGER: Inhibition of human TE-15 cell growth in a cell viability assay.

UACC-812 = experiment: cells; assay type: functional, cell-based; details: Homo sapiens
Description: SANGER: Inhibition of human UACC-812 cell growth in a cell viability assay.

WSU-NHL = experiment: cells; assay type: functional, cell-based; details: Homo sapiens
Description: SANGER: Inhibition of human WSU-NHL cell growth in a cell viability assay.

YT = experiment: cells; assay type: functional, cell-based; details: Homo sapiens
Description: SANGER: Inhibition of human YT cell growth in a cell viability assay.

CESS = experiment: SANGER: Inhibition of human CESS cell growth in a cell viability assay.; assay type: functional, cell-based
CMK = experiment: cells; assay type: functional, cell-based; details: Homo sapiens
Description: SANGER: Inhibition of human CMK cell growth in a cell viability assay.

EW-22 = experiment: cells; assay type: functional, cell-based; details: Homo sapiens
Description: SANGER: Inhibition of human EW-22 cell growth in a cell viability assay.

Kasumi 1 = experiment: cells; assay type: functional, cell-based; details: Homo sapiens
Description: SANGER: Inhibition of human KASUMI-1 cell growth in a cell viability assay.

## Cn1cncc1[C@@](N)(c1ccc(Cl)cc1)c1ccc2c(c1)c(-c1cccc(Cl)c1)cc(=O)n2C [TIPIFARNIB]
COR-L279
  IC50: 7.95 µM
EB-3
  IC50: 9.1 µM
EVSA-T
  IC50: > 16 µM
G-361
  IC50: 1.14 µM
GDM-1
  IC50: 0.352 µM
HCC1599
  IC50: > 16 µM
HT55
  IC50: > 16 µM
IM-9
  IC50: > 16 µM
IST-SL2
  IC50: 13.3 µM
JIYOYE
  IC50: 9.18 µM
K052
  IC50: 15.9 µM
KARPAS-422
  IC50: > 16 µM
KMS-12-PE
  IC50: > 16 µM
L-540
  IC50: 4.83 µM
LOUCY
  IC50: > 16 µM
LU-165
  IC50: > 16 µM
MC-CAR
  IC50: 9.07 µM
MDA-MB-134-VI
  IC50: > 16 µM
MEL-JUSO
  IC50: 0.0234 µM
MRK-nu-1
  IC50: 1.12 µM
NCI-H1436
  IC50: > 16 µM
NCI-H1522
  IC50: > 16 µM
NCI-H1694
  IC50: > 16 µM
NCI-H1703
  IC50: > 16 µM
NCI-H1882
  IC50: > 16 µM
NCI-H2141
  IC50: > 16 µM
NCI-H460
  IC50: 4.93 µM
NCI-H524
  IC50: > 16 µM
NCI-H64
  IC50: > 16 µM
NCI-H889
  IC50: > 16 µM
SNU-16
  IC50: > 16 µM
Raji
  IC50: 12.5 µM
SCLC-21H
  IC50: > 16 µM
SK-MM-2
  IC50: > 16 µM
SNU-C1
  IC50: > 16 µM
ST486
  IC50: 1.26 µM
SU-DHL-1
  IC50: 7.27 µM
SUP-T1
  IC50: 0.787 µM
23132-87
  IC50: 6.7 µM
BC-3
  IC50: 2.98 µM
BL-41
  IC50: 2.77 µM
BL-70
  IC50: 1.95 µM
CA46
  IC50: 2.39 µM
CAL-148
  IC50: 0.884 µM
TE-15
  IC50: 0.365 µM
UACC-812
  IC50: > 16 µM
WSU-NHL
  IC50: > 16 µM
YT
  IC50: 1.65 µM
CESS
  IC50: 2.02 µM
CMK
  IC50: 0.151 µM

## C=C1C(=O)O[C@@H]2C3O[C@]3(C)CC/C=C(\C)CC[C@@H]12 (some centres not stated)
COR-L279
  IC50: > 5 µM
EB-3
  IC50: > 5 µM
EVSA-T
  IC50: > 5 µM
EW-22
  IC50: > 5 µM
GDM-1
  IC50: > 5 µM
HCC1599
  IC50: > 5 µM
IM-9
  IC50: > 5 µM
IST-SL2
  IC50: > 5 µM
JIYOYE
  IC50: > 5 µM
K052
  IC50: > 5 µM
KARPAS-422
  IC50: > 5 µM
Kasumi 1
  IC50: > 5 µM
KMS-12-PE
  IC50: > 5 µM
L-540
  IC50: > 5 µM
LOUCY
  IC50: > 5 µM
LU-165
  IC50: > 5 µM
MC-CAR
  IC50: > 5 µM
MDA-MB-134-VI
  IC50: > 5 µM
MRK-nu-1
  IC50: 2.01 µM
NCI-H1436
  IC50: > 5 µM
NCI-H1522
  IC50: > 5 µM
NCI-H1694
  IC50: > 5 µM
NCI-H1882
  IC50: > 5 µM
NCI-H2141
  IC50: > 5 µM
NCI-H524
  IC50: > 5 µM
NCI-H64
  IC50: > 5 µM
NCI-H889
  IC50: > 5 µM
SNU-16
  IC50: > 5 µM
Raji
  IC50: > 5 µM
SCLC-21H
  IC50: > 5 µM
SK-MM-2
  IC50: > 5 µM
SNU-C1
  IC50: > 5 µM
ST486
  IC50: > 5 µM
SU-DHL-1
  IC50: > 5 µM
SUP-T1
  IC50: > 5 µM
BC-3
  IC50: > 5 µM
BL-41
  IC50: > 5 µM
BL-70
  IC50: > 5 µM
CA46
  IC50: > 5 µM
CAL-148
  IC50: > 5 µM
TE-15
  IC50: > 5 µM
UACC-812
  IC50: > 5 µM
WSU-NHL
  IC50: > 5 µM
YT
  IC50: > 5 µM
CESS
  IC50: > 5 µM
CMK
  IC50: > 5 µM

## CO[C@H]1C[C@@H]2CC[C@@H](C)[C@@](O)(O2)C(=O)C(=O)N2CCCC[C@H]2C(=O)O[C@H]([C@H](C)C[C@@H]2CC[C@@H](O)[C@H](OC)C2)CC(=O)[C@H](C)/C=C(\C)[C@@H](O)[C@@H](OC)C(=O)[C@H](C)C[C@H](C)/C=C/C=C/C=C/1C [SIROLIMUS]
COR-L279
  IC50: 0.0873 µM
EB-3
  IC50: 0.0527 µM
EVSA-T
  IC50: > 0.1 µM
EW-22
  IC50: > 0.1 µM
GDM-1
  IC50: > 0.1 µM
HCC1599
  IC50: > 0.1 µM
IM-9
  IC50: > 0.1 µM
IST-SL2
  IC50: > 0.1 µM
JIYOYE
  IC50: 0.0109 µM
K052
  IC50: > 0.1 µM
KARPAS-422
  IC50: > 0.1 µM
Kasumi 1
  IC50: > 0.1 µM
KMS-12-PE
  IC50: > 0.1 µM
L-540
  IC50: 0.0104 µM
LOUCY
  IC50: > 0.1 µM
LU-165
  IC50: > 0.1 µM
MC-CAR
  IC50: > 0.1 µM
MDA-MB-134-VI
  IC50: 0.044 µM
MRK-nu-1
  IC50: < 0.000391 µM
NCI-H1436
  IC50: > 0.1 µM
NCI-H1522
  IC50: > 0.1 µM
NCI-H1694
  IC50: > 0.1 µM
NCI-H1882
  IC50: > 0.1 µM
NCI-H2141
  IC50: > 0.1 µM
NCI-H524
  IC50: > 0.1 µM
NCI-H64
  IC50: > 0.1 µM
NCI-H889
  IC50: > 0.1 µM
SNU-16
  IC50: > 0.1 µM
Raji
  IC50: 0.0897 µM
SCLC-21H
  IC50: > 0.1 µM
SK-MM-2
  IC50: > 0.1 µM
SNU-C1
  IC50: > 0.1 µM
ST486
  IC50: > 0.1 µM
SU-DHL-1
  IC50: > 0.1 µM
SUP-T1
  IC50: > 0.1 µM
BC-3
  IC50: 0.0992 µM
BL-41
  IC50: 0.0437 µM
BL-70
  IC50: 0.0284 µM
CA46
  IC50: > 0.1 µM
CAL-148
  IC50: > 0.1 µM
TE-15
  IC50: 0.00136 µM
UACC-812
  IC50: > 0.1 µM
WSU-NHL
  IC50: > 0.1 µM
YT
  IC50: > 0.1 µM
CESS
  IC50: 0.0131 µM
CMK
  IC50: 0.0842 µM
